Columns and labels:
PSC = assay: LC3B positive autophagosomes, immunofluorescent staining; type: cell-based, mouse; conditions: 10 µM, three days
Experimental: (§1) Cells were fixed with PBS containing 0.5% of para-formaldehyde for 15 min at room temperature. After three washing steps in PBS, cells were permeabilized with PBS containing 0.3% of Triton X-100 (Sigma) for 1 h at room temperature. After washing with PBS three times, cells were incubated overnight with the anti-LC3B antibody in PBS with 1% bovine serum albumin (Sigma) at 4°C. After three washing steps in PBS, cells were incubated with the fluorescent secondary antibody for 90 min at 4°C in PBS with 1% bovine serum albumin. They were then incubated with […] DAPI (Thermofisher) in PBS for 15 min. After washing with PBS, cells were rinsed once in water prior to mounting in the FluorSave reagent (Millipore).
(§2) Depending of these transitory environmental conditions, autophagy can either promote survival or apoptosis ([Degtyarev et al., 2008]). PIK/AKT pathway inhibition has been reported to increase cell autophagy ([Palmieri et al., 2017]). More specifically, PIP4K2C has been described as a down-regulator of autophagy ([Sharma et al., 2019]).

HeLa cells = assay: as above; type: cell-based; conditions: 10 µM, three days
Experimental: as §1, §2

RIOK2 = target: RIOK2; set-up: method as in Varin et al., 2015; conditions: ref Varin et al., 2015; cited from earlier work

Row | SMILES | number of LC3B-positive autophagosomes (PSC) | number of LC3B-positive autophagosomes (HeLa cells) | Kd (RIOK2) [µM]
1 | NC(=O)c1nc(Nc2ccccc2)sc1NC(=O)C1CCCCC1 [UNC-3230] | increased | increased | –
2 | O=C(Cc1ccc(-c2ccccc2)cc1)Nc1ccccn1 [Diphenpyramide] | – | – | 0.16
3 | FC(F)(F)c1ccccc1-c1nc(NCc2cccs2)c2ccccc2n1 [NIH-12848] | – | confirmed in HeLa cells | –

Source: article PMC8371461 (Frontiers in Pharmacology, 2021)
